Test results from PubChem BioAssay (NCI).
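Five concentrations, 48 hours, 96-well plates. GI50 marks 50% less growth. TGI marks complete inhibition of growth.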

Assays:
Assay in all cases: DTP human tumour cell line panel, 48 h
MDA-N = test system: MDA-N
DMS 114 small cell lung = test system: DMS 114 small cell lung
XF 498 CNS = test system: XF 498 CNS
SNB-78 CNS = test system: SNB-78 CNS
DMS 273 small cell lung = test system: DMS 273 small cell lung
KM20L2 colon = test system: KM20L2 colon
HOP-18 NSCLC = test system: HOP-18 NSCLC
DLD-1 colon = test system: DLD-1 colon
RXF-631 renal = test system: RXF-631 renal

SMILES | TGI (MDA-N) [µM] | TGI (DMS 114 small cell lung) [µM] | TGI (XF 498 CNS) [µM] | TGI (SNB-78 CNS) [µM] | TGI (DMS 273 small cell lung) [µM] | TGI (KM20L2 colon) [µM] | TGI (HOP-18 NSCLC) [µM] | TGI (DLD-1 colon) [µM] | GI50 (KM20L2 colon) [µM] | GI50 (HOP-18 NSCLC) [µM] | GI50 (DLD-1 colon) [µM] | TGI (RXF-631 renal) [µM] | GI50 (DMS 114 small cell lung) [µM] | GI50 (XF 498 CNS) [µM] | GI50 (RXF-631 renal) [µM] | GI50 (SNB-78 CNS) [µM] | GI50 (DMS 273 small cell lung) [µM]
COc1ccc2c(=O)c3ccoc3n(CC=C(C)C)c2c1 | > 100 |  |  |  |  |  |  |  |  |  |  |  |  |  |  |  | 
O=C(CC1(O)C(=O)Nc2c(Cl)ccc(Cl)c21)c1ccc2ccccc2c1 (stereo unspecified) |  | 19.2 | 25.4 | 46.3 | > 100 | 62.1 | 37.2 | 59 |  |  |  |  |  |  |  |  | 
CC(=O)[CH-]C(=O)c1ccccc1.CC(=O)[CH-]C(=O)c1ccccc1.CC(C)CCCC(C)[C@H]1CCC2[C@@H]3CC=C4C[C@@H]([O-])CC[C@]4(C)C3CC[C@@]21C.CC[O-].[Ti+4] (stereo partly specified) |  |  |  |  |  | > 100 | > 100 | > 100 | 67.8 | 76 | 93.7 |  |  |  |  |  | 
Cn1c(=O)nc2n(-c3cccc(Br)c3)c3ccccc3nc-2c1=O |  | 4.45 | 15.8 | 33.3 | 14.7 | 6.97 | 19.4 | 29.1 |  |  |  |  |  |  |  |  | 
COC(=O)/C([Se]c1c(C)cc(C)cc1C)=C(\[Se]c1c(C)cc(C)cc1C)C(=O)OC |  | > 100 |  | > 100 | > 100 | > 100 | > 100 | > 100 |  |  |  | > 100 |  |  |  |  | 
Cc1ccccc1C(=O)c1ccccc1O |  | > 100 | > 100 | > 100 | > 100 | > 100 | > 100 | > 100 |  |  |  | > 100 |  |  |  |  | 
CN(C)c1ccc([O][Bi]([Cl])[Cl])cc1 |  | > 100 | > 100 | > 100 | > 100 | > 100 | > 100 | > 100 | > 100 | > 100 | > 100 | > 100 | 87.9 | 80.6 | 30.7 | > 100 | > 100
CCOC(=O)N1CCc2cc(OC)c(OC)c3c2c1cc1cc(OC)c(OC)cc13 | 0.599 | 7.1 | 69 | > 100 | > 45.2 | 7.16 | > 100 | > 100 |  |  |  | 66 |  |  |  |  | 
O=C(CO)CC(=O)C(=O)Nc1ccccc1 |  | > 100 |  | > 100 | > 100 | > 100 | > 100 | > 100 |  |  |  | > 100 |  |  |  |  | 
O=[N+]([O-])c1nccn1CC(O)CN1CC1 (stereo unspecified) |  | > 100 | > 100 | > 100 | > 100 | > 100 | > 100 | > 100 |  |  |  | > 100 |  |  |  |  | 
CC(=O)[CH-]C(=O)c1ccccc1.CC(=O)[CH-]C(=O)c1ccccc1.[Eu+3].[OH-].[OH3+] |  |  |  |  |  | > 100 | > 100 |  | > 100 | > 100 |  |  |  |  |  |  | 
Oc1cc(O)c2c(-c3c(O)c(-c4ccc(O)c(O)c4)[o+]c4cc(O)cc(O)c34)c(O)c(-c3ccc(O)c(O)c3)[o+]c2c1 |  | 92.8 | 87.6 | > 100 | > 100 | > 100 | 36.4 | > 100 |  |  |  | > 100 |  |  |  |  | 
CCC/C(=N/NC(=O)C(N)=O)C(CC)C(=O)CCC(=O)N(Cc1ccccc1)Cc1ccccc1 (stereo unspecified) |  | > 100 | > 100 | > 100 | > 100 | > 100 | > 100 |  |  |  |  | > 100 |  |  |  |  | 
N[C@@H]1CCCC[C@H]1N.O=C([O-])C(=O)[O-].[Pt+4] |  |  |  | > 100 |  | 24.2 | > 100 | > 100 | 0.263 | 34.3 | 3.46 |  |  |  |  | 19.8 | 
CCOc1ccccc1NC(=O)CC1SC(=Nc2ccc([N+](=O)[O-])cc2)NC1=O (stereo unspecified) |  | 32 | 32.4 | > 100 |  | 42.2 | 51.1 | 59 |  |  |  |  |  |  |  |  | 
COc1c(OC)c(OC)c2c(c1OC)c(=O)c1ccccc1n2C | > 100 |  |  |  |  |  |  |  |  |  |  |  |  |  |  |  | 
N#CC(C(=O)CCC(=O)C(C#N)c1ccccc1)c1ccccc1 (stereo unspecified) |  | > 100 | > 100 | > 100 | > 100 |  | > 100 | > 100 |  |  |  |  |  |  |  |  | 
O=C1NC(=O)C2C(=O)NC(=O)C1C2(c1ccccc1)c1cc[nH]c1 (stereo unspecified) |  | > 100 | > 100 | > 100 | > 100 |  |  | > 100 |  |  |  |  |  |  |  |  | 
CCC1(c2c(F)c(F)c(N)c(F)c2F)CCC(=O)NC1=O (stereo unspecified) |  | > 100 | > 100 | > 100 | > 100 |  | > 100 | > 100 |  |  |  |  |  |  |  |  | 
CC(=O)[CH-]C(=O)c1ccccc1.CC(=O)[CH-]C(=O)c1ccccc1.CC1(C)C2CCC1(C)C([O-])C2.CC1(C)C2CCC1(C)C([O-])C2.[Ti+4] |  |  |  |  |  | > 100 | > 100 | > 100 | 60 | 36.6 | 29.2 |  |  |  |  |  | 
CC1(c2cccc3ccccc23)OC(=O)c2ccccc21 (stereo unspecified) |  | 38 | 45.2 | > 100 | 28.6 | 35.7 |  | 75.2 |  |  |  | 70.7 |  |  |  |  | 
COC(=O)C(=O)OC1(C(C)=O)CC2(c3ccccc3)OC1(c1ccccc1)c1ccccc12 (stereo unspecified) |  | 32 | 30.5 | 65 | 30 | 30.7 | 84.5 | 36.4 |  |  |  | > 100 |  |  |  |  | 
CC(=O)[C@@]1(O)CC[C@H]2[C@@H]3C[C@H](C)C4=CC(=O)CC[C@]4(C)[C@H]3[C@@H](O)C[C@@]21C | > 100 |  |  |  |  |  |  |  |  |  |  |  |  |  |  |  | 
Oc1ccccc1C=NCc1ccco1 |  | > 100 | > 100 | > 100 |  | > 100 | > 100 | > 100 |  |  |  | > 100 |  |  |  |  | 
BrC1=CC=C2NC=CC3=CC=NC1C32 (stereo unspecified) |  | 58.1 | 48 | > 100 | > 92.5 | > 100 | 66.8 | > 65.2 |  |  |  | > 100 |  |  |  |  | 
N/C(=C\c1ccc(OCc2ccccc2)c(OCc2ccccc2)c1[N+](=O)[O-])C(=O)O |  |  |  | > 100 | > 100 | > 100 | > 100 | > 100 |  |  |  |  |  |  |  |  | 
O=NNc1ccc(S(=O)(=O)c2ccccc2)cn1 | > 100 |  |  |  |  |  |  |  |  |  |  |  |  |  |  |  | 
N#CC(C(=O)/C(=N/N)C(C#N)c1ccccc1)c1ccccc1 (stereo unspecified) |  | > 100 | > 100 | > 100 |  |  | > 100 | > 100 |  |  |  | > 100 |  |  |  |  | 
